Measured values taken from US12624018B1, “Inhibitors of RIPK2 and medical uses thereof” (Odyssey Therapeutics, Inc., priority 2022, dated 2026).

target: T1, RIPK2 enzyme (Homo sapiens, UniProt O43353); experiment: RIPK2 inhibition (ADP-Glo Kinase Assay); assay type: biochemical; details: RIPK2 5 nM, ATP 150 μM, MBP substrate, read-out: RIPK2 IC50
T1 construct: purchased Carna 09-128
Procedure, shortened: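 Human RIPK2 (5 nM) preincubated with compound 30 min at room temperature in 50 mM HEPES pH 7.5, 10 mM MgCl2, 2 mM DTT, 1 mM EGTA, 0.01% Brij-35, 0.05% BSA; native swine MBP as substrate. ADP formed quantified by ADP-Glo luminescence; percent inhibition relative to DMSO and no-enzyme controls.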

T1 sequence (O43353 1-299 limits assumed): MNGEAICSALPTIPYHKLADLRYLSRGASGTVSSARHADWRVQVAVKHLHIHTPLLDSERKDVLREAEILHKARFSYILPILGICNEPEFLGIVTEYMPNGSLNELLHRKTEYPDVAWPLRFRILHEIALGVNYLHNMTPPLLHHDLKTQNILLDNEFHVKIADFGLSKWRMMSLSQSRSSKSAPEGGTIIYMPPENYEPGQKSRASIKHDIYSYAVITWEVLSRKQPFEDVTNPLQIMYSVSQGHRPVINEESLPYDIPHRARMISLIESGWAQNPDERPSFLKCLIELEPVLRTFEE

IC50 [nM] | Structure (SMILES)
< 2.5 | Cc1cc(CC(=O)Nc2cnn(C(C)(C)C)c2)ccc1Oc1ccnc2ccc(OC[C@H]3CCNC3)cc12 [Compound 193, (S)-N-(1-(tert-butyl)-1H-pyrazol-4-yl)-2-(3-methyl-4-((6-(pyrrolidin-3-ylmethoxy)quinolin-4-yl)oxy)phenyl) acetamide]
2.9 | Cc1cc(CC(=O)Nc2cnn(C(C)(C)C)c2)c(F)cc1Oc1ccnc2ccc(S(=O)(=O)N3C[C@@H](C)O[C@@H](C)C3)cc12 [Compound 389, N-(1-(tert-butyl)-1H-pyrazol-4-yl)-2-(4-((6-(((2R,6S)-2,6-dimethylmorpholino)sulfonyl)quinolin-4-yl)oxy)-2-fluoro-5-methylphenyl)acetamide]
< 2.5 | CCNC(=O)c1ccc2nccc(Oc3cc(F)c(CC(=O)Nc4cnn(C(C)(C)C)c4)cc3C)c2c1 [Compound 363, 4-(4-(2-((1-(tert-butyl)-1H-pyrazol-4-yl)amino)-2-oxoethyl)-5-fluoro-2-methyl-phenoxy)-N-ethyl-quinoline-6-carboxamide]
< 2.5 | CCS(=O)(=O)c1ccc2nccc(Oc3ccc(CC(=O)Nc4cnn(C(C)(C)C)c4)c(F)c3C)c2c1 [Compound 173, N-(1-(tert-butyl)-1H-pyrazol-4-yl)-2-(4-((6-(ethylsulfonyl)quinolin-4-yl)oxy)-2-fluoro-3-methylphenyl)acetamide]
< 2.5 | Cc1cc(CC(=O)Nc2cnn(C(C)(C)C)c2)ccc1Oc1ccnc2ccc(S(=O)(=O)N3CC(F)C3)cc12 [Compound 259, N-(1-(tert-butyl)-1H-pyrazol-4-yl)-2-(4-((6-((3-fluoroazetidin-1-yl)sulfonyl)quinolin-4-yl)oxy)-3-methylphenyl)acetamide]
< 2.5 | Cc1cc(CC(=O)Nc2cnn(C(C)(C)C)c2)ccc1Oc1ccnc2ccc(S(=O)(=O)C3CNC3)cc12 [Compound 314, 2-(4-((6-(azetidin-3-ylsulfonyl)quinolin-4-yl)oxy)-3-methylphenyl)-N-(1-(tert-butyl)-1H-pyrazol-4-yl)acetamide]
18.5 | CC(C)(C)n1cc(NC(=O)Cc2ccc(Oc3ncnc4ccc(OC5COC5)cc34)cc2F)cn1 [Compound 49, N-(1-(tert-butyl)-1H-pyrazol-4-yl)-2-(2-fluoro-4-((6-(oxetan-3-yloxy)quinazolin-4-yl)oxy)phenyl) acetamide]
70.7 | COc1ccc2ncnc(Oc3cnc(C(C)C(=O)Nc4cnn(C(C)(C)C)c4)c(F)c3)c2c1 (single isomer, unassigned) [Compound 11, N-(1-(tert-butyl)-1H-pyrazol-4-yl)-2-(3-fluoro-5-((6-methoxyquinazolin-4-yl)oxy)pyridin-2-yl)propanamide]
< 2.5 | Cc1cc(CC(=O)Nc2cnn(C(C)(C)C)c2)ccc1Oc1ccnc2ccc(N3CCC(O)C3=O)cc12 (single isomer, unassigned) [Compound 327, N-(1-(tert-butyl)-1H-pyrazol-4-yl)-2-(4-((6-(3-hydroxy-2-oxopyrrolidin-1-yl)quinolin-4-yl)oxy)-3-methylphenyl) acetamide]
< 2.5 | CC(C)(C)c1cc(NC(=O)Cc2ccc(Oc3ccnc4ccc(OC5CCNCC5)cc34)cc2F)n[nH]1 [Compound 137, N-(5-(tert-butyl)-1H-pyrazol-3-yl)-2-(2-fluoro-4-((6-(piperidin-4-yloxy)quinolin-4-yl)oxy)phenyl) acetamide]
< 2.5 | CCS(=O)(=O)c1ccc2nccc(Oc3ccc(CC(=O)Nc4cnn(C(C)(C)C)c4)cc3F)c2c1 [Compound 164, N-(1-(tert-butyl)-1H-pyrazol-4-yl)-2-(4-((6-(ethylsulfonyl)quinolin-4-yl)oxy)-3-fluorophenyl)acetamide]
< 2.5 | Cc1cc(CC(=O)Nc2cnn(C(C)(C)C)c2)ccc1Oc1ccnc2ccc(OCC3CCCN3)cc12 (single isomer, unassigned) [Compound 190, N-(1-(tert-butyl)-1H-pyrazol-4-yl)-2-(3-methyl-4-((6-(pyrrolidin-2-ylmethoxy)quinolin-4-yl)oxy)phenyl) acetamide]
< 2.5 | Cc1cc(CC(=O)Nc2cnn(C(C)(C)C)c2)ccc1Oc1ccnc2ccc(OC[C@@H]3CCCNC3)cc12 [Compound 194, (R)-N-(1-(tert-butyl)-1H-pyrazol-4-yl)-2-(3-methyl-4-((6-(piperidin-3-ylmethoxy)quinolin-4-yl)oxy)phenyl) acetamide]
29.6 | COc1ccc2ncnc(Oc3ccc(CC(=O)Nc4cc(C(C)(C)CO)ccn4)c(F)c3)c2c1 [Compound 35, 2-(2-fluoro-4-((6-methoxy-quinazolin-4-yl)oxy)phenyl)-N-(4-(1-hydroxy-2-methylpropan-2-yl)pyridin-2-yl)acetamide]
< 2.5 | COCCNC(=O)c1ccc2nccc(Oc3cc(F)c(CC(=O)Nc4cnn(C(C)(C)C)c4)cc3C)c2c1 [Compound 367, 4-(4-(2-((1-(tert-butyl)-1H-pyrazol-4-yl)amino)-2-oxoethyl)-5-fluoro-2-methyl-phenoxy)-N-(2-methoxy-ethyl) quinoline-6-carboxamide]
< 2.5 | Cc1cc(CC(=O)Nc2cnn(C(C)(C)C)c2)ccc1Oc1ccnc2ccc(S(=O)(=O)C3CC3)cc12 [Compound 100, N-(1-(tert-butyl)-1H-pyrazol-4-yl)-2-(4-((6-(cyclopropylsulfonyl)quinolin-4-yl)oxy)-3-methylphenyl)acetamide]
< 2.5 | Cc1cc(CC(=O)Nc2cnn(C(C)(C)C)c2)c(F)cc1Oc1ccnc2ccc(P(C)(C)=O)cc12 [Compound 381, N-(1-(tert-butyl)-1H-pyrazol-4-yl)-2-(4-((6-(dimethylphosphoryl)quinolin-4-yl)oxy)-2-fluoro-5-methylphenyl) acetamide]
< 2.5 | CC(C)(C)n1cc(NC(=O)Cc2ccc(Oc3ccnc4ccc(NS(C)(=O)=O)cc34)cc2F)cn1 [Compound 68, N-(1-(tert-butyl)-1H-pyrazol-4-yl)-2-(2-fluoro-4-((6-(methylsulfonamido)quinolin-4-yl)oxy)phenyl)acetamide]
< 2.5 | Cc1cc(CC(=O)Nc2cnn(C(C)(C)C)c2)ccc1Oc1ccnc2ccc(OC3CCNCC3F)cc12 (racemic) [Compound 237, N-(1-(tert-butyl)-1H-pyrazol-4-yl)-2-(4-((6-((-3-fluoro-piperidin-4-yl)oxy)quinolin-4-yl)oxy)-3-methylphenyl) acetamide]
< 2.5 | Cc1cc(CC(=O)Nc2cnn(C(C)(C)C)c2)ccc1Oc1ccnc2ccc(S(=O)(=O)N3CCC3)cc12 [Compound 258, 2-(4-((6-(azetidin-1-ylsulfonyl)quinolin-4-yl)oxy)-3-methylphenyl)-N-(1-(tert-butyl)-1H-pyrazol-4-yl)acetamide]
< 2.5 | COCCNC(=O)c1ccc2nccc(Oc3ccc(CC(=O)Nc4cnn(C(C)(C)C)c4)c(F)c3C)c2c1 [Compound 342, 4-(4-(2-((1-(tert-butyl)-1H-pyrazol-4-yl)amino)-2-oxoethyl)-3-fluoro-2-methyl-phenoxy)-N-(2-methoxyethyl) quinoline-6-carboxamide]
34.9 | COc1ccc2ncnc(Oc3ccc(CC(=O)Nc4cc(C(C)(C)CO)[nH]n4)c(F)c3)c2c1 [Compound 15, 2-(2-fluoro-4-((6-methoxy-quinazolin-4-yl)oxy)phenyl)-N-(5-(1-hydroxy-2-methylpropan-2-yl)-1H-pyrazol-3-yl)acetamide]
4.2 | CN1CCC(Oc2ccc3ncnc(Oc4ccc(CC(=O)Nc5cnn(C(C)(C)C)c5)c(F)c4)c3c2)CC1 [Compound 19, N-(1-(tert-butyl)-1H-pyrazol-4-yl)-2-(2-fluoro-4-((6-((1-methyl-piperidin-4-yl)oxy)quinazolin-4-yl)oxy)phenyl) acetamide]
7.4 | CN(C)C1CCN(c2ccc3nccc(Oc4cnc(CC(=O)Nc5cnn(C(C)(C)C)c5)c(F)c4)c3c2)C1 (single isomer, unassigned) [Compound 140, N-(1-(tert-butyl)-1H-pyrazol-4-yl)-2-(5-((6-(3-(dimethylamino)pyrrolidin-1-yl)quinolin-4-yl)oxy)-3-fluoropyridin-2-yl)acetamide]
< 2.5 | CCS(=O)(=O)c1ccc2nccc(Oc3cc(F)c(CC(=O)Nc4cnn(C(C)(C)C)c4)cc3Cl)c2c1 [Compound 430, N-(1-(tert-butyl)-1H-pyrazol-4-yl)-2-(5-chloro-4-((6-(ethylsulfonyl)quinolin-4-yl)oxy)-2-fluorophenyl)acetamide]
< 2.5 | Cc1cc(CC(=O)Nc2cc(C(C)C)n(C)n2)ccc1Oc1ccnc2ccc(S(C)(=O)=O)cc12 [Compound 233, N-(5-isopropyl-1-methyl-1H-pyrazol-3-yl)-2-(3-methyl-4-((6-(methylsulfonyl)quinolin-4-yl)oxy)phenyl)acetamide]
< 2.5 | Cc1c(Oc2ccnc3ccc(C(C)(C)O)cc23)ccc(CC(=O)Nc2cnn(C(C)(C)C)c2)c1F [Compound 302, N-(1-(tert-butyl)-1H-pyrazol-4-yl)-2-(2-fluoro-4-((6-(2-hydroxypropan-2-yl)quinolin-4-yl)oxy)-3-methylphenyl)acetamide]
< 2.5 | Cc1cc(CC(=O)Nc2cnn(C(C)(C)C)c2)c(F)cc1Oc1ccnc2ccc(C(=O)N3CC4(COC4)C3)cc12 [Compound 372, 2-(4-((6-(2-oxa-6-azaspiro[3.3]heptane-6-carbonyl)quinolin-4-yl)oxy)-2-fluoro-5-methyl-phenyl)-N-(1-(tert-butyl)-1H-pyrazol-4-yl)acetamide]
< 2.5 | Cc1cc(CC(=O)Nc2cnn(C(C)(C)C)c2)c(F)cc1Oc1ccnc2ccc(C(=O)N3CCCC3)cc12 [Compound 377, N-(1-(tert-butyl)-1H-pyrazol-4-yl)-2-(2-fluoro-5-methyl-4-((6-(pyrrolidine-1-carbonyl)quinolin-4-yl)oxy)phenyl) acetamide]
3.5 | COc1ccc2nccc(Oc3cnc(CC(=O)Nc4cc(C(C)(C)C)[nH]n4)c(F)c3)c2c1 [Compound 13, N-(5-(tert-butyl)-1H-pyrazol-3-yl)-2-(3-fluoro-5-((6-methoxyquinolin-4-yl)oxy)pyridin-2-yl)acetamide]
